Consider four compounds from PubChem BioAssay AID2060501 (Molecular Pharmacology Branch, DTP, NCI, 2025).

What is called IC50 is the concentration at which inhibition is half-maximal. As usually defined, the viability, T/C is the ratio of treated to control.

Structures are written as SMILES. A value given as a limit tells only on which side of the number the result lay.
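Also: spheroids exposed to compounds for 7 days before readout.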
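For viability, T/C in this document: percent of vehicle DMSO control viability with 100% = untreated-like growth.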

In the first assay the test system is 282377-053-R-J1-PDC complex spheroids, viability. Description: Anticancer human tumor 282377-053-R-J1-PDC patient-derived colon adenocarcinoma cell line growth inhibition [GQUAD]. To be noted: curve of first compound; second compound 0.0316 µM. The essentials:
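Tumor cells were grown as complex spheroids with HUVEC endothelial cells and mesenchymal stem cells as stroma. G-quadruplex stabilizers were combined with targeted agents over half-log dilutions from near the clinical Cmax, or from 10 microM.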
For the compound `C=CCn1c(=O)c2cnc(Nc3ccc(N4CCN(C)CC4)cc3)nc2n1-c1cccc(C(C)(C)O)n1` + Cc1cnc(CNC(=O)c2c(=O)c3ccc(N4CCCN(C)CC4)nc3n3c2sc2ccccc23)cn1, the IC50 came to 1590 nM.
Consider `CC(C)(O)C1CCC(Nc2ccc3ncc(-c4cccc(C(F)(F)F)c4)n3n2)CC1` (configuration not stated) + Cc1cnc(CNC(=O)c2c(=O)c3ccc(N4CCCN(C)CC4)nc3n3c2sc2ccccc23)cn1, for which the IC50 is 1680 nM.
`COc1ncnc(C2CC2)c1-c1ncc2cnn(Cc3ccc(-c4nc(C(F)(F)F)cn4C(C)C)cc3)c2n1` + Cc1cnc(CNC(=O)c2c(=O)c3ccc(N4CCCN(C)CC4)nc3n3c2sc2ccccc23)cn1: the IC50 was greater than 10000 nM.
Take `O=C(NO)c1cnc(N2CCN(S(=O)(=O)c3ccc4ccccc4c3)CC2)nc1` + Cc1cnc(CNC(=O)c2c(=O)c3ccc(N4CCCN(C)CC4)nc3n3c2sc2ccccc23)cn1: the IC50 is 360 nM.

The same assay, now with this note: curve of first compound; second compound 0.1 µM.
As for `C=CCn1c(=O)c2cnc(Nc3ccc(N4CCN(C)CC4)cc3)nc2n1-c1cccc(C(C)(C)O)n1` + Cc1cnc(CNC(=O)c2c(=O)c3ccc(N4CCCN(C)CC4)nc3n3c2sc2ccccc23)cn1, the half-inhibitory concentration (IC50) came out at 1470 nM.
On the same count and under the same terms, in the case of `CC(C)(O)C1CCC(Nc2ccc3ncc(-c4cccc(C(F)(F)F)c4)n3n2)CC1` (configuration not stated) + Cc1cnc(CNC(=O)c2c(=O)c3ccc(N4CCCN(C)CC4)nc3n3c2sc2ccccc23)cn1 it was 910 nM; in that of `COc1ncnc(C2CC2)c1-c1ncc2cnn(Cc3ccc(-c4nc(C(F)(F)F)cn4C(C)C)cc3)c2n1` + Cc1cnc(CNC(=O)c2c(=O)c3ccc(N4CCCN(C)CC4)nc3n3c2sc2ccccc23)cn1, greater than 10000 nM; in that of `O=C(NO)c1cnc(N2CCN(S(=O)(=O)c3ccc4ccccc4c3)CC2)nc1` + Cc1cnc(CNC(=O)c2c(=O)c3ccc(N4CCCN(C)CC4)nc3n3c2sc2ccccc23)cn1, 406 nM.

The assay is the same for the next values; noted with them: curve of first compound; second compound 0.316 µM.
Consider `C=CCn1c(=O)c2cnc(Nc3ccc(N4CCN(C)CC4)cc3)nc2n1-c1cccc(C(C)(C)O)n1` + Cc1cnc(CNC(=O)c2c(=O)c3ccc(N4CCCN(C)CC4)nc3n3c2sc2ccccc23)cn1, for which the IC50 turned out to be 731 nM.
Same read-out and setting: in the case of `CC(C)(O)C1CCC(Nc2ccc3ncc(-c4cccc(C(F)(F)F)c4)n3n2)CC1` (configuration not stated) + Cc1cnc(CNC(=O)c2c(=O)c3ccc(N4CCCN(C)CC4)nc3n3c2sc2ccccc23)cn1 it was 1330 nM; in that of `COc1ncnc(C2CC2)c1-c1ncc2cnn(Cc3ccc(-c4nc(C(F)(F)F)cn4C(C)C)cc3)c2n1` + Cc1cnc(CNC(=O)c2c(=O)c3ccc(N4CCCN(C)CC4)nc3n3c2sc2ccccc23)cn1, greater than 10000 nM.
The same measure, in the same setting: in the case of `O=C(NO)c1cnc(N2CCN(S(=O)(=O)c3ccc4ccccc4c3)CC2)nc1` + Cc1cnc(CNC(=O)c2c(=O)c3ccc(N4CCCN(C)CC4)nc3n3c2sc2ccccc23)cn1 it was 189 nM.

The assay is the same for the next values; noted with them: curve of first compound; second compound 1 µM.
Regarding `C=CCn1c(=O)c2cnc(Nc3ccc(N4CCN(C)CC4)cc3)nc2n1-c1cccc(C(C)(C)O)n1` + Cc1cnc(CNC(=O)c2c(=O)c3ccc(N4CCCN(C)CC4)nc3n3c2sc2ccccc23)cn1, the concentration for half-maximal inhibition (IC50) worked out at 651 nM.
Still for that read-out and setting: to `CC(C)(O)C1CCC(Nc2ccc3ncc(-c4cccc(C(F)(F)F)c4)n3n2)CC1` (configuration not stated) + Cc1cnc(CNC(=O)c2c(=O)c3ccc(N4CCCN(C)CC4)nc3n3c2sc2ccccc23)cn1 belongs 361 nM; to `COc1ncnc(C2CC2)c1-c1ncc2cnn(Cc3ccc(-c4nc(C(F)(F)F)cn4C(C)C)cc3)c2n1` + Cc1cnc(CNC(=O)c2c(=O)c3ccc(N4CCCN(C)CC4)nc3n3c2sc2ccccc23)cn1, greater than 10000 nM.
On the same count and under the same terms, in the case of `O=C(NO)c1cnc(N2CCN(S(=O)(=O)c3ccc4ccccc4c3)CC2)nc1` + Cc1cnc(CNC(=O)c2c(=O)c3ccc(N4CCCN(C)CC4)nc3n3c2sc2ccccc23)cn1 it was 82.3 nM.

The assay is the same for the next values; noted with them: curve of first compound; second compound 3.16 µM.
Take `C=CCn1c(=O)c2cnc(Nc3ccc(N4CCN(C)CC4)cc3)nc2n1-c1cccc(C(C)(C)O)n1` + Cc1cnc(CNC(=O)c2c(=O)c3ccc(N4CCCN(C)CC4)nc3n3c2sc2ccccc23)cn1: the IC50 is 295 nM.
Same read-out and setting: in the case of `CC(C)(O)C1CCC(Nc2ccc3ncc(-c4cccc(C(F)(F)F)c4)n3n2)CC1` (configuration not stated) + Cc1cnc(CNC(=O)c2c(=O)c3ccc(N4CCCN(C)CC4)nc3n3c2sc2ccccc23)cn1 it was less than 31.6 nM.
Same read-out and setting: in the case of `COc1ncnc(C2CC2)c1-c1ncc2cnn(Cc3ccc(-c4nc(C(F)(F)F)cn4C(C)C)cc3)c2n1` + Cc1cnc(CNC(=O)c2c(=O)c3ccc(N4CCCN(C)CC4)nc3n3c2sc2ccccc23)cn1 it was 865 nM; in that of `O=C(NO)c1cnc(N2CCN(S(=O)(=O)c3ccc4ccccc4c3)CC2)nc1` + Cc1cnc(CNC(=O)c2c(=O)c3ccc(N4CCCN(C)CC4)nc3n3c2sc2ccccc23)cn1, less than 31.6 nM.

Still in this assay, the particulars now being: curve of first compound; second compound 10 µM.
Take `C=CCn1c(=O)c2cnc(Nc3ccc(N4CCN(C)CC4)cc3)nc2n1-c1cccc(C(C)(C)O)n1` + Cc1cnc(CNC(=O)c2c(=O)c3ccc(N4CCCN(C)CC4)nc3n3c2sc2ccccc23)cn1: the concentration for half-maximal inhibition (IC50) is less than 31.6 nM.
Consider `CC(C)(O)C1CCC(Nc2ccc3ncc(-c4cccc(C(F)(F)F)c4)n3n2)CC1` (configuration not stated) + Cc1cnc(CNC(=O)c2c(=O)c3ccc(N4CCCN(C)CC4)nc3n3c2sc2ccccc23)cn1, for which the IC50 is less than 31.6 nM.
Regarding `COc1ncnc(C2CC2)c1-c1ncc2cnn(Cc3ccc(-c4nc(C(F)(F)F)cn4C(C)C)cc3)c2n1` + Cc1cnc(CNC(=O)c2c(=O)c3ccc(N4CCCN(C)CC4)nc3n3c2sc2ccccc23)cn1, the IC50 was less than 31.6 nM.
Still for that read-out and setting: to `O=C(NO)c1cnc(N2CCN(S(=O)(=O)c3ccc4ccccc4c3)CC2)nc1` + Cc1cnc(CNC(=O)c2c(=O)c3ccc(N4CCCN(C)CC4)nc3n3c2sc2ccccc23)cn1 belongs less than 31.6 nM.

The assay is the same for the next values; noted with them: second compound 0.0316 µM; first compound 0.0316 µM; stronger effect = lower value.
`C=CCn1c(=O)c2cnc(Nc3ccc(N4CCN(C)CC4)cc3)nc2n1-c1cccc(C(C)(C)O)n1` + Cc1cnc(CNC(=O)c2c(=O)c3ccc(N4CCCN(C)CC4)nc3n3c2sc2ccccc23)cn1: the viability, T/C is 109%.
On to `CC(C)(O)C1CCC(Nc2ccc3ncc(-c4cccc(C(F)(F)F)c4)n3n2)CC1` (configuration not stated) + Cc1cnc(CNC(=O)c2c(=O)c3ccc(N4CCCN(C)CC4)nc3n3c2sc2ccccc23)cn1, for which the viability, T/C was 96.9%.
Turning to `COc1ncnc(C2CC2)c1-c1ncc2cnn(Cc3ccc(-c4nc(C(F)(F)F)cn4C(C)C)cc3)c2n1` + Cc1cnc(CNC(=O)c2c(=O)c3ccc(N4CCCN(C)CC4)nc3n3c2sc2ccccc23)cn1, the viability, T/C is 108%.
Same read-out and setting: to `O=C(NO)c1cnc(N2CCN(S(=O)(=O)c3ccc4ccccc4c3)CC2)nc1` + Cc1cnc(CNC(=O)c2c(=O)c3ccc(N4CCCN(C)CC4)nc3n3c2sc2ccccc23)cn1 belongs 98.6%.

The assay is the same for the next values; noted with them: second compound 0.0316 µM; first compound 0.1 µM; stronger effect = lower value.
On to `C=CCn1c(=O)c2cnc(Nc3ccc(N4CCN(C)CC4)cc3)nc2n1-c1cccc(C(C)(C)O)n1` + Cc1cnc(CNC(=O)c2c(=O)c3ccc(N4CCCN(C)CC4)nc3n3c2sc2ccccc23)cn1, for which the viability, T/C is 102%.
Consider `CC(C)(O)C1CCC(Nc2ccc3ncc(-c4cccc(C(F)(F)F)c4)n3n2)CC1` (configuration not stated) + Cc1cnc(CNC(=O)c2c(=O)c3ccc(N4CCCN(C)CC4)nc3n3c2sc2ccccc23)cn1, for which the viability, T/C was 83.3%.
Still for that read-out and setting: in the case of `COc1ncnc(C2CC2)c1-c1ncc2cnn(Cc3ccc(-c4nc(C(F)(F)F)cn4C(C)C)cc3)c2n1` + Cc1cnc(CNC(=O)c2c(=O)c3ccc(N4CCCN(C)CC4)nc3n3c2sc2ccccc23)cn1 it was 107%; in that of `O=C(NO)c1cnc(N2CCN(S(=O)(=O)c3ccc4ccccc4c3)CC2)nc1` + Cc1cnc(CNC(=O)c2c(=O)c3ccc(N4CCCN(C)CC4)nc3n3c2sc2ccccc23)cn1, 78.5%.

Staying with this assay, now noted: second compound 0.0316 µM; first compound 0.316 µM; stronger effect = lower value.
Take `C=CCn1c(=O)c2cnc(Nc3ccc(N4CCN(C)CC4)cc3)nc2n1-c1cccc(C(C)(C)O)n1` + Cc1cnc(CNC(=O)c2c(=O)c3ccc(N4CCCN(C)CC4)nc3n3c2sc2ccccc23)cn1: the viability, T/C was 107%.
Still for that read-out and setting: in the case of `CC(C)(O)C1CCC(Nc2ccc3ncc(-c4cccc(C(F)(F)F)c4)n3n2)CC1` (configuration not stated) + Cc1cnc(CNC(=O)c2c(=O)c3ccc(N4CCCN(C)CC4)nc3n3c2sc2ccccc23)cn1 it was 93.2%; in that of `COc1ncnc(C2CC2)c1-c1ncc2cnn(Cc3ccc(-c4nc(C(F)(F)F)cn4C(C)C)cc3)c2n1` + Cc1cnc(CNC(=O)c2c(=O)c3ccc(N4CCCN(C)CC4)nc3n3c2sc2ccccc23)cn1, 119%; in that of `O=C(NO)c1cnc(N2CCN(S(=O)(=O)c3ccc4ccccc4c3)CC2)nc1` + Cc1cnc(CNC(=O)c2c(=O)c3ccc(N4CCCN(C)CC4)nc3n3c2sc2ccccc23)cn1, 57.9%.

Still in this assay, the particulars now being: second compound 0.0316 µM; first compound 1 µM; stronger effect = lower value.
For the compound `C=CCn1c(=O)c2cnc(Nc3ccc(N4CCN(C)CC4)cc3)nc2n1-c1cccc(C(C)(C)O)n1` + Cc1cnc(CNC(=O)c2c(=O)c3ccc(N4CCCN(C)CC4)nc3n3c2sc2ccccc23)cn1, the viability, T/C was 67.7%.
On the same count and under the same terms, to `CC(C)(O)C1CCC(Nc2ccc3ncc(-c4cccc(C(F)(F)F)c4)n3n2)CC1` (configuration not stated) + Cc1cnc(CNC(=O)c2c(=O)c3ccc(N4CCCN(C)CC4)nc3n3c2sc2ccccc23)cn1 belongs 78.4%.
Still for that read-out and setting: to `COc1ncnc(C2CC2)c1-c1ncc2cnn(Cc3ccc(-c4nc(C(F)(F)F)cn4C(C)C)cc3)c2n1` + Cc1cnc(CNC(=O)c2c(=O)c3ccc(N4CCCN(C)CC4)nc3n3c2sc2ccccc23)cn1 belongs 92.6%; to `O=C(NO)c1cnc(N2CCN(S(=O)(=O)c3ccc4ccccc4c3)CC2)nc1` + Cc1cnc(CNC(=O)c2c(=O)c3ccc(N4CCCN(C)CC4)nc3n3c2sc2ccccc23)cn1, 2.29%.

Still in this assay, the particulars now being: second compound 0.0316 µM; first compound 3.16 µM; stronger effect = lower value.
Regarding `C=CCn1c(=O)c2cnc(Nc3ccc(N4CCN(C)CC4)cc3)nc2n1-c1cccc(C(C)(C)O)n1` + Cc1cnc(CNC(=O)c2c(=O)c3ccc(N4CCCN(C)CC4)nc3n3c2sc2ccccc23)cn1, the viability, T/C was 24.1%.
The same measure, in the same setting: in the case of `CC(C)(O)C1CCC(Nc2ccc3ncc(-c4cccc(C(F)(F)F)c4)n3n2)CC1` (configuration not stated) + Cc1cnc(CNC(=O)c2c(=O)c3ccc(N4CCCN(C)CC4)nc3n3c2sc2ccccc23)cn1 it was 12%.
